ChEMBL document CHEMBL1201862, “PubChem BioAssay data set” (2004)
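Each compound was tested at five concentrations against cells in 96-well plates for 48 hours. At the GI50, growth is halved.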 The source made the active and inactive calls. Cut-off read from the data, not from the text of the source: active = GI50 up to about 1.1 µM and inactive = higher.

How the values were obtained:
Test in all cases: DTP human tumour cell line panel, 48 h
CAKI-1 = system: CAKI-1
SK-MEL-5 = system: SK-MEL-5
DLD-1 = system: DLD-1
SNB-78 = system: SNB-78
A498 = system: A498
HL-60 = system: HL-60
EKVX = system: EKVX
NCI-H522 = system: NCI-H522
SNB-75 = system: SNB-75
HCC 2998 = system: HCC 2998
OVCAR-3 = system: OVCAR-3
SK-OV-3 = system: SK-OV-3
UO-31 = system: UO-31
SK-MEL-28 = system: SK-MEL-28
DMS-273 = system: DMS-273
OVCAR-8 = system: OVCAR-8
LOX IMVI = system: LOX IMVI
KM-20L2 = system: KM-20L2
Malme-3M = system: Malme-3M
HOP-92 = system: HOP-92
HOP-62 = system: HOP-62
COLO 205 = system: COLO 205
OVCAR-4 = system: OVCAR-4
OVCAR-5 = system: OVCAR-5
XF498 = system: XF498
RXF 393 = system: RXF 393
HCT-15 = system: HCT-15
MOLT-4 = system: MOLT-4
A549 = system: A549
SF-268 = system: SF-268
HCT-116 = system: HCT-116
UACC-257 = system: UACC-257
RPMI-8226 = system: RPMI-8226
UACC-62 = system: UACC-62
MCF7 = system: MCF7
M19-MEL = system: M19-MEL
KM12 = system: KM12
IGROV-1 = system: IGROV-1
NCI-H226 = system: NCI-H226
SN12C = system: SN12C
U-251 = system: U-251
SF-539 = system: SF-539
SK-MEL-2 = system: SK-MEL-2
HT-29 = system: HT-29
SF-295 = system: SF-295
K562 = system: K562
NCI-H23 = system: NCI-H23
SNB-19 = system: SNB-19
NCI/ADR-RES = system: NCI/ADR-RES
CCRF-CEM = system: CCRF-CEM
SW-620 = system: SW-620
HOP-18 = system: HOP-18
DMS-114 = system: DMS-114
NCI-H460 = system: NCI-H460

C=C1C(=O)OCC2C(C(=O)O)=CC3C(C)C(C)=CC123 (stereo unspecified)
GI50 (CAKI-1): 19.6 µM (inactive)
GI50 (SK-MEL-5): 9.31 µM (inactive)
GI50 (DLD-1): 11 µM (inactive)
GI50 (SNB-78): 14.8 µM (inactive)
GI50 (A498): 7.8 µM (inactive)
GI50 (HL-60): 9.33 µM (inactive)
GI50 (EKVX): 21.7 µM (inactive)
GI50 (NCI-H522): 2.31 µM (inactive)
GI50 (SNB-75): 13.9 µM (inactive)
GI50 (HCC 2998): 10.2 µM (inactive)
GI50 (OVCAR-3): 12.4 µM (inactive)
GI50 (SK-OV-3): 16.4 µM (inactive)
GI50 (UO-31): 14 µM (inactive)
GI50 (SK-MEL-28): 3.52 µM (inactive)
GI50 (DMS-273): 18.5 µM (inactive)
GI50 (OVCAR-8): 9.59 µM (inactive)
GI50 (LOX IMVI): 8.13 µM (inactive)
GI50 (KM-20L2): 11.9 µM (inactive)
GI50 (Malme-3M): 7.33 µM (inactive)
GI50 (HOP-92): 10.6 µM (inactive)
GI50 (HOP-62): 12.2 µM (inactive)
GI50 (COLO 205): 10.6 µM (inactive)
GI50 (OVCAR-4): 8.32 µM (inactive)
GI50 (OVCAR-5): 27.5 µM (inactive)
GI50 (XF498): 12.5 µM (inactive)
GI50 (RXF 393): 7.4 µM (inactive)
GI50 (HCT-15): 11 µM
GI50 (MOLT-4): 7.82 µM (inactive)
GI50 (A549): 20.7 µM (inactive)
GI50 (SF-268): 9.46 µM (inactive)
GI50 (HCT-116): 9.48 µM (inactive)
GI50 (UACC-257): 16.7 µM (inactive)
GI50 (RPMI-8226): 7.23 µM (inactive)
GI50 (UACC-62): 5.41 µM (inactive)
GI50 (MCF7): 8.13 µM (inactive)
GI50 (M19-MEL): 14.7 µM (inactive)
GI50 (KM12): 9.93 µM (inactive)
GI50 (IGROV-1): 11.9 µM (inactive)
GI50 (NCI-H226): 19.1 µM (inactive)
GI50 (SN12C): 8.73 µM (inactive)
GI50 (U-251): 11 µM (inactive)
GI50 (SF-539): 8.51 µM (inactive)
GI50 (SK-MEL-2): 7.21 µM (inactive)
GI50 (HT-29): 11.1 µM (inactive)
GI50 (SF-295): 15 µM (inactive)
GI50 (K562): 10.2 µM (inactive)
GI50 (NCI-H23): 8.36 µM (inactive)
GI50 (SNB-19): 11.8 µM (inactive)
GI50 (NCI/ADR-RES): 8.26 µM (inactive)
GI50 (CCRF-CEM): 7.74 µM (inactive)
GI50 (SW-620): 9.31 µM (inactive)
GI50 (HOP-18): 12.2 µM (inactive)
GI50 (DMS-114): 7.69 µM (inactive)
GI50 (NCI-H460): 9.14 µM (inactive)

CN(C)CC(CC1=C(CC(CN(C)C)N(C)C)CCC1)N(C)C (stereo unspecified)
GI50 (CAKI-1): > 100 µM (inactive)
GI50 (SK-MEL-5): > 100 µM (inactive)
GI50 (DLD-1): > 100 µM (inactive)
GI50 (A498): > 100 µM (inactive)
GI50 (HL-60): > 100 µM (inactive)
GI50 (EKVX): > 100 µM (inactive)
GI50 (NCI-H522): > 100 µM (inactive)
GI50 (SNB-75): > 100 µM (inactive)
GI50 (HCC 2998): > 100 µM (inactive)
GI50 (OVCAR-3): > 100 µM (inactive)
GI50 (SK-OV-3): > 100 µM (inactive)
GI50 (UO-31): > 100 µM (inactive)
GI50 (SK-MEL-28): > 100 µM (inactive)
GI50 (DMS-273): > 100 µM (inactive)
GI50 (OVCAR-8): > 100 µM (inactive)
GI50 (LOX IMVI): > 100 µM (inactive)
GI50 (KM-20L2): > 100 µM (inactive)
GI50 (Malme-3M): > 100 µM (inactive)
GI50 (HOP-92): > 100 µM (inactive)
GI50 (HOP-62): > 100 µM (inactive)
GI50 (COLO 205): > 100 µM (inactive)
GI50 (OVCAR-4): > 100 µM (inactive)
GI50 (OVCAR-5): > 100 µM (inactive)
GI50 (XF498): > 100 µM (inactive)
GI50 (RXF 393): > 100 µM (inactive)
GI50 (HCT-15): > 100 µM
GI50 (MOLT-4): > 100 µM (inactive)
GI50 (A549): > 100 µM (inactive)
GI50 (SF-268): > 100 µM (inactive)
GI50 (HCT-116): > 100 µM (inactive)
GI50 (UACC-257): > 100 µM (inactive)
GI50 (RPMI-8226): > 100 µM (inactive)
GI50 (UACC-62): > 100 µM (inactive)
GI50 (MCF7): > 100 µM (inactive)
GI50 (M19-MEL): > 100 µM (inactive)
GI50 (KM12): > 100 µM (inactive)
GI50 (IGROV-1): > 100 µM (inactive)
GI50 (NCI-H226): > 100 µM (inactive)
GI50 (SN12C): > 100 µM (inactive)
GI50 (U-251): > 100 µM (inactive)
GI50 (SF-539): > 100 µM (inactive)
GI50 (SK-MEL-2): > 100 µM (inactive)
GI50 (HT-29): > 100 µM (inactive)
GI50 (SF-295): > 100 µM (inactive)
GI50 (K562): > 100 µM (inactive)
GI50 (NCI-H23): > 100 µM (inactive)
GI50 (SNB-19): > 100 µM (inactive)
GI50 (NCI/ADR-RES): > 100 µM (inactive)
GI50 (CCRF-CEM): > 100 µM (inactive)
GI50 (SW-620): > 100 µM (inactive)
GI50 (HOP-18): > 100 µM (inactive)
GI50 (DMS-114): > 100 µM (inactive)
GI50 (NCI-H460): > 100 µM (inactive)

CCCCCCCC/C=C\CCCCCCCC(=O)O [OLEIC ACID]
GI50 (CAKI-1): 118 µM (inactive)
GI50 (SK-MEL-5): > 212 µM (inactive)
GI50 (DLD-1): 148 µM (inactive)
GI50 (SNB-78): 68.7 µM (inactive)
GI50 (A498): > 431 µM (inactive)
GI50 (HL-60): 126 µM (inactive)
GI50 (EKVX): 124 µM (inactive)
GI50 (NCI-H522): 101 µM (inactive)
GI50 (SNB-75): 24.5 µM (inactive)
GI50 (HCC 2998): > 434 µM (inactive)
GI50 (OVCAR-3): 184 µM (inactive)
GI50 (SK-OV-3): > 500 µM (inactive)
GI50 (UO-31): 158 µM (inactive)
GI50 (SK-MEL-28): 149 µM (inactive)
GI50 (DMS-273): 110 µM (inactive)
GI50 (OVCAR-8): 99.1 µM (inactive)
GI50 (LOX IMVI): 116 µM (inactive)
GI50 (KM-20L2): > 500 µM (inactive)
GI50 (Malme-3M): > 500 µM (inactive)
GI50 (HOP-92): > 5 µM (inactive)
GI50 (HOP-62): > 500 µM (inactive)
GI50 (COLO 205): > 500 µM (inactive)
GI50 (OVCAR-4): > 291 µM (inactive)
GI50 (OVCAR-5): > 500 µM (inactive)
GI50 (XF498): 8.91 µM (inactive)
GI50 (RXF 393): 92.7 µM (inactive)
GI50 (HCT-15): 177 µM
GI50 (MOLT-4): 148 µM (inactive)
GI50 (A549): 109 µM (inactive)
GI50 (SF-268): 101 µM (inactive)
GI50 (HCT-116): 114 µM (inactive)
GI50 (UACC-257): 105 µM (inactive)
GI50 (RPMI-8226): 91.6 µM (inactive)
GI50 (UACC-62): 180 µM (inactive)
GI50 (MCF7): 104 µM (inactive)
GI50 (M19-MEL): 101 µM (inactive)
GI50 (KM12): 240 µM (inactive)
GI50 (IGROV-1): 178 µM (inactive)
GI50 (NCI-H226): 9.48 µM (inactive)
GI50 (SN12C): 51.6 µM (inactive)
GI50 (U-251): 149 µM (inactive)
GI50 (SF-539): 103 µM (inactive)
GI50 (SK-MEL-2): 206 µM (inactive)
GI50 (HT-29): > 500 µM (inactive)
GI50 (SF-295): 99.1 µM (inactive)
GI50 (K562): 104 µM (inactive)
GI50 (NCI-H23): 87.7 µM (inactive)
GI50 (SNB-19): 143 µM (inactive)
GI50 (NCI/ADR-RES): 102 µM (inactive)
GI50 (CCRF-CEM): 99.8 µM (inactive)
GI50 (SW-620): 140 µM (inactive)
GI50 (HOP-18): > 500 µM (inactive)
GI50 (DMS-114): 97.7 µM (inactive)
GI50 (NCI-H460): 101 µM (inactive)
